Data published in patent publication US20100267561A1, “HERBICIDAL PYRIDAZINONE DERIVATIVES” (priority 2007, published 2010).

How the values were obtained:
Test in all cases: Test B flooded paddy test plant response
Type in all cases: in vivo
[1] = system: umbrella sedge (Cyperus difformis); settings: for pest or weed control at 62 g/ha / pest or weed control at 125 g/ha / pest or weed control at 250 g/ha / pest or weed control at 31 g/ha: Cyperus difformis, read-out: Plant response rating, Sedge, Umbrella
In short: (§1)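 Paddy-water application to 2-leaf plants in pots held under 3 cm of flooding; response is a 0–100 visual control rating against controls after 13 to 15 days, and a dash marks a missing result.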

[2] = system: rice (Oryza sativa); settings: for plant injury at 62 g/ha / plant injury at 125 g/ha / plant injury at 250 g/ha / plant injury at 31 g/ha: Oryza sativa, read-out: Plant response rating, Rice
In short: as §1

[3] = system: ducksalad (Heteranthera limosa); settings: for pest or weed control at 62 g/ha / pest or weed control at 125 g/ha / pest or weed control at 250 g/ha / pest or weed control at 31 g/ha: Heteranthera limosa, read-out: Plant response rating, Ducksalad
In short: as §1

[4] = Flood (flooded paddy test), 62 g ai/ha, scale 0 to 100, 0 no effect, 100 complete control
[5] = Flood (flooded paddy test), 125 g ai/ha, scale 0 to 100, 0 no effect, 100 complete control
[6] = Flood (flooded paddy test), 250 g ai/ha, scale 0 to 100, 0 no effect, 100 complete control
[7] = Flood, 31 g ai/ha, scale 0 to 100

| Compound | Plant response rating, Sedge, Umbrella [1, 4] | Plant response rating, Sedge, Umbrella [1, 5] | Plant response rating, Sedge, Umbrella [1, 6] | Plant response rating, Sedge, Umbrella [1, 7] | Plant response rating, Rice [2, 4] | Plant response rating, Rice [2, 5] | Plant response rating, Rice [2, 6] | Plant response rating, Rice [2, 7] | Plant response rating, Ducksalad [3, 4] | Plant response rating, Ducksalad [3, 5] | Plant response rating, Ducksalad [3, 6] | Plant response rating, Ducksalad [3, 7] | also measured |
| --- | --- | --- | --- | --- | --- | --- | --- | --- | --- | --- | --- | --- | --- |
| Cc1cc(-c2ccc(Br)cc2)nn1-c1c(OC(=O)C2CC2)cnn(C(=O)C2CC2)c1=O [Compound 80, 5-[3-(4-bromophenyl)-5-methyl-1H-pyrazol-1-yl]-1-(cyclopropylcarbonyl)-1,6-dihydro-6-oxo-4-pyridazinyl cyclopropanecarboxylate] |  |  |  |  |  |  |  |  |  |  |  |  | pest or weed control at 62 g/ha [1, 4]: 0%; pest or weed control at 125 g/ha [1, 5]: 0%; pest or weed control at 250 g/ha [1, 6]: 0%; pest or weed control at 31 g/ha [1, 7]: 0%; plant injury at 62 g/ha [2, 4]: 0%; plant injury at 125 g/ha [2, 5]: 0%; plant injury at 250 g/ha [2, 6]: 0%; plant injury at 31 g/ha [2, 7]: 0%; pest or weed control at 62 g/ha [3, 4]: 0%; pest or weed control at 125 g/ha [3, 5]: 0%; pest or weed control at 250 g/ha [3, 6]: 0%; pest or weed control at 31 g/ha [3, 7]: 0% |
| Cc1cc(-c2ccc(Br)cc2)nn1-c1c(O)cnn(C)c1=O [Compound 4] | 60 | 90 | 100 | 40 | 40 | 70 | 80 | 15 | 75 | 85 | 85 | 0 |  |
| CCc1cc(-c2ccc(C(F)(F)F)cc2)nn1-c1c(O)cnn(CC)c1=O [Compound 67] | 0 | 0 | 0 | 0 | 0 | 0 | 15 | 0 | 0 | 0 | 75 | 0 |  |
| Cc1cc(-c2ccc(C(F)(F)F)cc2)nn1-c1c(OC(=O)C(C)(C)C)cnn(C)c1=O [Compound 2] | 50 | 60 |  | 0 | 15 | 15 | 45 | 0 | 0 | 0 | 40 | 0 |  |
| Cc1cc(-c2ccc(Cl)cc2)nn1-c1c(OC(=S)N(C)C)cnn(C)c1=O [Compound 69] | 0 | 0 | 0 | 0 | 0 | 0 | 0 | 0 | 0 | 0 | 0 | 0 |  |
| 4-[3-(4-chlorophenyl)-5-methyl-1H-pyrazol-3-yl]-5-hydroxy-2-methyl-3(2H)-pyridazinone [Compound 3] | 60 | 80 | 80 | 60 | 60 | 75 | 80 | 20 | 0 | 0 | 40 | 0 |  |
| Cc1cc(-c2ccc(Cl)cc2)nn1-c1c(OS(C)(=O)=O)cnn(C)c1=O [Compound 36] | 0 | 0 | 0 | 0 | 0 | 0 | 0 | 0 | 0 | 0 | 0 | 0 |  |
| CCc1cc(-c2ccc(Cl)cc2)nn1-c1c(OS(C)(=O)=O)cnn(C)c1=O [Compound 39] | 0 | 0 | 85 | 0 | 0 | 50 | 80 | 0 | 0 | 0 | 80 | 0 |  |
| CCc1cc(-c2ccc(Br)cc2)nn1-c1c(O)cnn(C)c1=O [Compound 61] | 0 | 0 | 30 | 0 | 0 | 15 | 60 | 0 | 0 | 0 | 70 | 0 |  |
| CCc1cc(-c2ccc(Cl)cc2)nn1-c1c(OC(=O)C(C)(C)C)cnn(C)c1=O [Compound 40] | 0 | 0 | 0 | 0 | 40 | 70 | 80 | 35 | 0 | 0 | 0 | 0 |  |
| Cc1nn(C)c(=O)c(-n2nc(-c3ccc(C(F)(F)F)cc3)cc2C)c1O [Compound 75, 5-hydroxy-2,6-dimethyl-4-[5-methyl-3-[4-(trifluoromethyl)phenyl]-1H-pyrazol-1-yl]-3(2H)-pyridazinone] |  |  |  |  |  |  |  |  |  |  |  |  | pest or weed control at 62 g/ha [1, 4]: 0%; pest or weed control at 250 g/ha [1, 6]: 0%; plant injury at 62 g/ha [2, 4]: 0%; plant injury at 250 g/ha [2, 6]: 0%; pest or weed control at 62 g/ha [3, 4]: 0%; pest or weed control at 250 g/ha [3, 6]: 0% |
| Cc1cc(-c2ccc(Br)cc2)nn1-c1c(OC(=O)OC(C)C)cnn(C)c1=O [Compound 6] | 70 | 85 | 95 | 30 | 30 | 80 | 90 | 20 | 50 | 60 | 70 | 40 |  |
| Cc1cc(-c2ccc(C(F)(F)F)cc2)nn1-c1c(O)cnn(C)c1=O [Compound 1, 5-hydroxy-2-methyl-4-[5-methyl-3-[4-(trifluoromethyl)phenyl]-1H-pyrazol-1-yl]-3(2H)-pyridazinone] |  |  |  |  |  |  |  |  |  |  |  |  | pest or weed control at 62 g/ha [1, 4]: 40%; pest or weed control at 125 g/ha [1, 5]: 40%; pest or weed control at 250 g/ha [1, 6]: 60%; pest or weed control at 31 g/ha [1, 7]: 0%; plant injury at 62 g/ha [2, 4]: 0%; plant injury at 125 g/ha [2, 5]: 0%; plant injury at 250 g/ha [2, 6]: 50%; plant injury at 31 g/ha [2, 7]: 0%; pest or weed control at 62 g/ha [3, 4]: 0%; pest or weed control at 125 g/ha [3, 5]: 0%; pest or weed control at 250 g/ha [3, 6]: 30%; pest or weed control at 31 g/ha [3, 7]: 0% |
| COCc1cc(-c2ccc(Br)cc2)nn1-c1c(O)cnn(C)c1=O [Compound 68] | 0 | 0 | 0 | 0 | 0 | 0 | 0 | 0 | 0 | 0 | 0 | 0 |  |
| Cc1nn(C)c(=O)c(-n2nc(-c3ccc(Br)cc3)cc2C)c1O [Compound 81] | 0 | 0 | 0 | 0 | 0 | 0 | 0 | 0 | 0 | 0 | 0 | 0 |  |
